Measurements published in patent publication US20110251238A1, “PPAR AGONIST COMPOSITIONS AND METHODS OF USE” (BIOPHARMED, priority 2008, published 2011).
Values after ≈ are worked out from the molar mass of the structure shown. Read-outs that look alike come from different tables or passages of the source.

Tests used:
[1] = test system: KB3 (epitheloid lung cancer) cell lines; experiment: Cell growth inhibition (cytotoxicity), MTS assay, KB3 cell line; type: cell-based; conditions: KB3, MTS assay, triplicate, read-out: KB3 IC50
Procedure: Cell growth inhibition was determined by the MTS assay; the number of viable cells were proportional to the extent of formazan production in the presence or absence of drugs. […]

[2] = test system: bloodstream forms of T. brucei and T. congolense; experiment: Trypanocidal activity in vitro, Alamar Blue assay; type: cell-based, Trypanosoma brucei and T. congolense
From the text: Trypanosoma brucei and T. congolense are the causative agents of sleeping sickness in humans and nagana in cattle, respectively. The protozoan parasites live extracellularlyin blood and tissue fluids of mammals and are transmitted by the bite of infected tsetse flies (Glossina spp.). Here the trypanocidal activity against bloodstream forms of T. brucei and T. congolense of bis-8-hydroxy quinoline N-substituted benzylamines derivatives was investigated in vitro, according to methods described in. Steverding et al. (2006) Kinetoplastid Biology and Disease, 5(3): 1-5; Hongmance et al., (2007) Antimicrob. Agents Chemother. 51:1105-1106; and Zhao et al., (2005) Bio-org. Med. Chem.; 13: 3921-3926. Cells were seeded into 96-well tissue culture plates in 200 μl medium containing various concentrations of analogues dissolved in H2O. The controls contained the respective solvent alone. […] After 24 h (trypanosomes) or 43 h (HL-60) incubation, 20 μl of the colorimetric viability indicator Alamar Blue® was added to each well. The cells were incubated for a further 24 h (trypanosomes) or 5 h (HL-60) so that the total incubation time was 48 h. Then, the plates were read on a Dynatech MR5000ELISA reader (Denkendorf, Germany),using a test wavelength of 550 nm and a reference wave length of 630 nm. Each test was set up in duplicate and repeated three times. For comparison, the general cytotoxicity of the compounds was assayed with human myeloid leukaemia HL-60 cells. The anti-trypanosomal activities and the general cytotoxicities of the new analogues were evaluated using the Alamar Blue® assay.

[3] = test system: A549 (human lung adenocarcinoma epithelial); experiment: Growth inhibition, MTT colorimetric assay, A549; type: cell-based; conditions: Homo sapiens, A549, 72 h, read-out: IC50 A549
Procedure: (§1) A549 (human lung adenocarcinoma epithelial), BxPC3 (pancreatic cancer), LoVo (colon cancer), MCF-7 (epithelial breast cancer), PC3 (human prostate cancer), Hs683 (human glioma), T98G (glioblastoma), U373 (human glioblastoma-astrocytoma), U138 MG (human glioma), epithelial-like), SKMEL28 (human melanoma), B16-F10 (mouse melanoma) and RhTP (rhabdomyosarcoma) cell lines were cultured in presence of the drugs for 3 days. The cytotoxic activity is expressed as (IC50). Inhibition of cell proliferation measured by the MTT colorimetric assay. The values reported in Table 4 are means of six distinct values.

[4] = test system: BxPC3 (pancreatic cancer); experiment: Growth inhibition, MTT colorimetric assay, BxPC3; type: cell-based, human; conditions: Homo sapiens, BXPC-3, 72 h, read-out: IC50 BxPC3
Procedure: Cells are cultured at 37° C. in Falcon culture dishes, incubated at 5% CO2 in a suitable culture medium available from Invitrogen Corp. Anti-proliferative activity is determined by an MTT assay (bromide of (3-[4,5-dimethylthiazolium-yl]diphenyltetrazolium)). According to one standard protocol, absorbance is measured at 570 nm (see Dumont et al. (2007) Neoplasia 9: 766-776.
as §1

LoVo (colon cancer) = experiment: Growth inhibition, MTT colorimetric assay, LoVo; type: cell-based; conditions: Homo sapiens, LoVo, 72 h, read-out: IC50 LoVo
Procedure: as §1

[5] = test system: MCF-7 (epithelial breast cancer); experiment: Growth inhibition, MTT colorimetric assay, MCF7; type: cell-based; conditions: Homo sapiens, MCF7, 72 h, read-out: IC50 MCF7
Procedure: as §1

[6] = test system: PC3 (human prostate cancer); experiment: Growth inhibition, MTT colorimetric assay, PC3; type: cell-based; conditions: Homo sapiens, 72 h, read-out: IC50 PC3
Procedure: as §1, with “Compounds that met the criteria for activity on KB3 cells were further tested for drug growth inhibitory activity in 5 carcinoma, 6 glioma and 3 melanoma cell lines, shown in Table 4. A549” for “A549”, “values. The standard errors are <5% as compared to the mean values.” for “values.”

Hs683 (human glioma) = experiment: Growth inhibition, MTT colorimetric assay, HS683; type: cell-based; conditions: Homo sapiens, Hs 683, 72 h, read-out: IC50 HS683
Procedure: as §1

T98G (glioblastoma) = experiment: cells; type: cell-based; conditions: Homo sapiens, T98G, 72 h, read-out: IC50 T98G
Procedure: as §1

[7] = test system: U373 (human glioblastoma-astrocytoma); experiment: Growth inhibition, MTT colorimetric assay, U373; type: cell-based; conditions: Homo sapiens, U373 MG, 72 h, read-out: IC50 U373
Procedure: as §1, with “Compounds that met the criteria for activity on KB3 cells were further tested for drug growth inhibitory activity in 5 carcinoma, 6 glioma and 3 melanoma cell lines, shown in Table 4. A549” for “A549”, “values. The standard errors are <5% as compared to the mean values.” for “values.”

U138 MG (human glioma) = experiment: Growth inhibition, MTT colorimetric assay, U138; type: cell-based; conditions: Homo sapiens, U138-MG, 72 h, read-out: IC50 U138
Procedure: as §1, with “Compounds that met the criteria for activity on KB3 cells were further tested for drug growth inhibitory activity in 5 carcinoma, 6 glioma and 3 melanoma cell lines, shown in Table 4. A549” for “A549”, “values. The standard errors are <5% as compared to the mean values.” for “values.”

GL19 = experiment: Growth inhibition, MTT colorimetric assay, GL19; type: cell-based; conditions: GL19, 72 h, read-out: IC50 GL19
Procedure: as §1, with “Compounds that met the criteria for activity on KB3 cells were further tested for drug growth inhibitory activity in 5 carcinoma, 6 glioma and 3 melanoma cell lines, shown in Table 4. A549” for “A549”, “values. The standard errors are <5% as compared to the mean values.” for “values.”

RhTP (rhabdomyosarcoma) = experiment: Growth inhibition, MTT colorimetric assay, RhTp; type: cell-based; conditions: 72 h, read-out: IC50 RhTp
Procedure: as §1, with “Compounds that met the criteria for activity on KB3 cells were further tested for drug growth inhibitory activity in 5 carcinoma, 6 glioma and 3 melanoma cell lines, shown in Table 4. A549” for “A549”, “values. The standard errors are <5% as compared to the mean values.” for “values.”

KaKa = experiment: Growth inhibition, MTT colorimetric assay, KaKa; type: cell-based; conditions: 72 h, read-out: IC50 KaKa
Procedure: as §1, with “Compounds that met the criteria for activity on KB3 cells were further tested for drug growth inhibitory activity in 5 carcinoma, 6 glioma and 3 melanoma cell lines, shown in Table 4. A549” for “A549”, “values. The standard errors are <5% as compared to the mean values.” for “values.”

Host = experiment: Growth inhibition, MTT colorimetric assay, Host; type: cell-based; conditions: 72 h, read-out: IC50 Host
Procedure: as §1, with “Compounds that met the criteria for activity on KB3 cells were further tested for drug growth inhibitory activity in 5 carcinoma, 6 glioma and 3 melanoma cell lines, shown in Table 4. A549” for “A549”, “values. The standard errors are <5% as compared to the mean values.” for “values.”

SKMEL28 (human melanoma) = experiment: Growth inhibition, MTT colorimetric assay, SKMEL-28; type: cell-based; conditions: Homo sapiens, SK-MEL-28, 72 h, read-out: IC50 SKMEL-28
Procedure: as §1, with “Compounds that met the criteria for activity on KB3 cells were further tested for drug growth inhibitory activity in 5 carcinoma, 6 glioma and 3 melanoma cell lines, shown in Table 4. A549” for “A549”, “values. The standard errors are <5% as compared to the mean values.” for “values.”

B16-F10 (mouse melanoma) = experiment: Growth inhibition, MTT colorimetric assay, B16F10; type: cell-based; conditions: Mus musculus, B16-F10, 72 h, read-out: IC50 B16F10
Procedure: as §1, with “Compounds that met the criteria for activity on KB3 cells were further tested for drug growth inhibitory activity in 5 carcinoma, 6 glioma and 3 melanoma cell lines, shown in Table 4. A549” for “A549”, “values. The standard errors are <5% as compared to the mean values.” for “values.”

[8] = 50% growth inhibition, 48 h total incubation, read-out: GI50
[9] = lowest concentration at which all cells were killed, 48 h total incubation, read-out: MIC
[10] = carcinoma, 3 days with drug, means of six values, unit inferred
[11] = glioma, 3 days with drug, means of six values, unit inferred
[12] = 3 days with drug, means of six values, unit inferred
[13] = melanoma, 3 days with drug, means of six values, unit inferred

**Q.** What does the source list for `Oc1ccc(CN(Cc2ccc(O)c3ncccc23)Cc2ccc(O)c3ncccc23)c2cccnc12` [BPM19,218, 5,5′,5″-nitrilotris(methylene)triquinolin-8-ol]?
**A.** IC50 ([1]; Table 3B): > 10000 nM; GI50 [2, 8]: 450 ± 100 nM; MIC [2, 9]: 1 µM (≈ 0.489 µg/mL); melting point: 175 to 178 °C

**Q.** What does the source list for `CC(C)(C)OC(=O)N(Cc1cc(C(F)(F)F)cc(C(F)(F)F)c1)Cc1ccc(O)c2ncccc12` [BPM19,190, Tert-butyl-3,5-bis(trifluoromethyl)benzyl((8-hydroxyquinolin-5-yl)methyl)carbamate]?
**A.** IC50 ([1]; Table 3B): 1000 nM; melting point: 149 to 152 °C

**Q.** Which IC50 ([1]; Table 3A) does the source give for `Oc1ccc(CN(Cc2cccs2)Cc2ccc(O)c3ncccc23)c2cccnc12` [BPM18,202, 5,5′-(thiophen-2-ylmethylazanediyl)bis(methylene)diquinolin-8-ol] here?
**A.** The IC50 was 2 nM.

**Q.** And the IC50 [3]?
**A.** The IC50 was 27 nM.

**Q.** And the IC50 [4]?
**A.** The IC50 was 0.089 µM.

**Q.** And the IC50 (LoVo (colon cancer))?
**A.** Its IC50 is 40 nM.

**Q.** What about the IC50 [5] of the same compound?
**A.** Its IC50 is 35 nM.

**Q.** And the IC50 [6]?
**A.** Its IC50 is 44 nM.

**Q.** What about the IC50 (Hs683 (human glioma)) of the same compound?
**A.** The IC50 was 35 nM.

**Q.** What about the IC50 (T98G (glioblastoma)) of the same compound?
**A.** Its IC50 is 88 nM.

**Q.** And the IC50 [7]?
**A.** Its IC50 is 85 nM.

**Q.** What about the IC50 (U138 MG (human glioma)) of the same compound?
**A.** Its IC50 is 44 nM.

**Q.** And the IC50 (GL19)?
**A.** Its IC50 is 3.45 µM.

**Q.** And the IC50 (RhTP (rhabdomyosarcoma))?
**A.** Its IC50 is 79 nM.

**Q.** What about the IC50 (KaKa) of the same compound?
**A.** The IC50 was 1760 nM.

**Q.** And the IC50 (Host)?
**A.** The IC50 was 1730 nM.

**Q.** And the IC50 (SKMEL28 (human melanoma))?
**A.** Its IC50 is 4.83 µM.

**Q.** And the IC50 (B16-F10 (mouse melanoma))?
**A.** The IC50 was 86 nM.

**Q.** And the GI50 ([2]; 48 h)?
**A.** The GI50 was 310 ± 10 nM.

**Q.** And the MIC ([2]; 48 h)?
**A.** Its MIC is 1 µM (≈ 0.428 µg/mL).

**Q.** Which results are given for `Oc1ccc(CN(Cc2ccccc2)Cc2ccc(O)c3ncccc23)c2cccnc12` [BPM18,725, 5,5′-(benzylazanediyl)bis(methylene)diquinolin-8-ol]?
**A.** IC50 ([1]; Table 3A): 20 nM; IC50 [3, 10]: 54 nM; IC50 [4, 10]: 7.44 µM; IC50 (LoVo (colon cancer); [10]): 91 nM; IC50 [5, 10]: 97 nM; IC50 [6, 10]: 258 nM; IC50 (Hs683 (human glioma); [11]): 76 nM; IC50 (T98G (glioblastoma); [11]): 249 nM; IC50 [7, 11]: 357 nM; IC50 (U138 MG (human glioma); [11]): 95 nM; IC50 (GL19; [12]): 3.45 µM; IC50 (RhTP (rhabdomyosarcoma); [12]): 97 nM; IC50 (KaKa; [12]): 2430 nM; IC50 (Host; [12]): 2160 nM; IC50 (SKMEL28 (human melanoma); [13]): > 10 µM; IC50 (B16-F10 (mouse melanoma); [13]): 765 nM; GI50 [2, 8]: 300 ± 10 nM; MIC [2, 9]: 1 µM (≈ 0.422 µg/mL)

**Q.** Which results are given for `CC(C)(C)OC(=O)N(Cc1cccc(C(F)(F)F)c1)Cc1ccc(O)c2ncccc12` [BPM19,132, Tert-butyl-(8-hydroxyquinolin-5-yl)methyl(3-(trifluoromethyl)benzyl)carbamate]?
**A.** IC50 ([1]; Table 3B): 1000 nM; melting point: 114 to 116 °C
